Each compound was assayed against human HPK1 (MAP4K1) (Homo sapiens (Human), UniProt Q92918) (assay: HPK1 IC50 Assay (TR-FRET biochemical kinase assay, STK S1 peptide substrate)). Settings: recombinant human HPK1 kinase domain 0.15 nM, 10 μM ATP, 1 μM STK S1 peptide; geometric mean.
Experimental: The enzymatic activity of human HPK1 (MAP4K1) was monitored in a biochemical assay in the presence or absence of compounds and using a synthetic peptide substrate. An increase in phosphorylation of the peptide by HPK1 was indicative of its kinase activity.
Recombinant HPK1 kinase domain produced via baculovirus infection of insect cells was obtained from Proteros (Proteros Biostructures #PR-0322) and was pre-activated in the presence of 2 mM ATP (Sigma-Aldrich, cat #GE27-2056-01) and 2 mM magnesium chloride for 16 hours at 4° C. The protein reaction mixture was then loaded to a desalting column (Thermo Fisher Scientific, Cat #89889) to remove excess ATP. HPK1 was eluted with buffer containing 20 mM Tris (2-Amino-2-(hydroxymethyl)propane-1,3-diol) pH 8.0, 150 mM NaCl, 2 mM dithiothreitol and 5% glycerol, and was frozen at −80° C. for later use.
Ten nanoliters of test compounds dissolved in DMSO at various concentrations were dispensed into a 384-well ProxiPlate (PerkinElmer #6008289). Five microliters of a solution of recombinant HPK1 diluted in HPK1 kinase assay buffer (50 mM BES [N,N-Bis(2-hydroxyethyl)-2-aminoethanesulfonic acid], pH 7.0; 10 mM magnesium chloride; 0.01% Triton X-100; 1 mM dithiothreitol; 0.01% bovine serum albumin; 0.1 mM sodium orthovanadate) was added to the compound-containing plate and was incubated for 15 minutes at 25° C. Five microliters of a mixture of ATP (Sigma-Aldrich #A6559) and peptide substrate STK S1 (Cisbio #61ST1BLC) diluted in HPK1 kinase assay buffer was then added to start the reaction. Final concentrations were 0.15 nM for HPK1, 10 μM for ATP, and 1 μM for the STK S1 peptide substrate. The reaction mixture was incubated at 25° C. for 3 hours and was stopped with the addition of 10 μl of an EDTA (Ethylenediaminetetraacetic acid)-containing detection buffer (Cisbio #62SDBRDF) supplemented with Europium cryptate-labeled anti-phospho-serine/threonine antibodies (Cisbio #62ST1PEJ) and XL665-labeled streptavidin (Cisbio #610SAXLG). The mixture was incubated for 16 hours at room temperature and peptide phosphorylation was measured by time-resolved fluorescence energy transfer (665 nm/620 nm) on an Envision plate reader (PerkinElmer).
Data in Table 1 were normalized based on positive (staurosporine) and negative (DMSO) controls. Least squares curve fittings were performed using a four-parameter variable slope nonlinear regression model. IC50 is defined as the concentration of compound required to inhibit 50% of maximum phosphorylation. IC50 values from multiple experiments were averaged by geometric mean and the standard deviation was calculated.

Chain of human HPK1 (MAP4K1) (Q92918 17-274): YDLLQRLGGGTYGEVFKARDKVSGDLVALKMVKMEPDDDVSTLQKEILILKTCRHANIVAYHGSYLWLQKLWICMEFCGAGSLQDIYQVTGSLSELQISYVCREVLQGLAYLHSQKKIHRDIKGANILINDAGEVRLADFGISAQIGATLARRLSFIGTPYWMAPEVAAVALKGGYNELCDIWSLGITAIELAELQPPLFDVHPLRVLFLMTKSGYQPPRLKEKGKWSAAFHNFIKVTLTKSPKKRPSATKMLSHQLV

Row | Structure (SMILES) | IC50 [nM]
1 | CC(=O)N1CCC2(CC1)C(=O)N([C@H]1C[C@@H](N3C[C@H]4CC[C@H]4C3)C1)c1cc(-c3cc4ncn(C(C)C)c4c(Nc4ccncc4F)n3)ccc12 [Example 172] | 0.1
2 | CC(C)n1cnc2cc(-c3ccc4c(c3)N([C@H]3C[C@@H](N5CCCCC5)C3)C(=O)C43CCN(C(=O)C4(C(C)C)COC4)CC3)nc(Nc3ccncc3F)c21 [Example 137] | 0.08
3 | CC(C)n1cnc2cc(-c3ccc4c(c3)N([C@H]3C[C@@H](N5CCCCC5)C3)C(=O)C43CCN(C(=O)C(C)(C)C)CC3)nc(Nc3ccncc3F)c21 [Example 170] | 0.3
4 | CC(C)n1cnc2cc(-c3ccc4c(c3)N([C@H]3C[C@@H](N5CCC(C)(C)C5)C3)C(=O)C43CCN(C(=O)c4ccon4)CC3)nc(Nc3ccncc3F)c21 [Example 155] | 0.3
5 | CC[C@H](O)C(=O)N1CCC2(CC1)C(=O)N([C@H]1C[C@@H](N3CCC(C)(C)C3)C1)c1cc(-c3cc4ncn(C(C)C)c4c(Nc4ccncc4F)n3)ccc12 [Example 116] | 0.4
6 | CC(C)n1cnc2cc(-c3ccc4c(c3)N([C@H]3C[C@@H](N5CCC(C)(C)C5)C3)C(=O)C43CCN(C(=O)c4ncco4)CC3)nc(Nc3ccncc3F)c21 [Example 159] | 0.4
7 | CC(C)n1cnc2cc(-c3ccc4c(c3)N([C@H]3C[C@@H](N5CCC(C)(C)C5)C3)C(=O)C43CCN(C(=O)c4ncon4)CC3)nc(Nc3ccncc3F)c21 [Example 160] | 0.4
8 | CC(=O)N1CCC2(CC1)C(=O)N([C@H]1C[C@@H](N3CCCC4(CCC4)C3)C1)c1cc(-c3cc4ncn(C(C)C)c4c(Nc4ccncc4F)n3)ccc12 [Example 182] | 0.3
9 | CO[C@@H](C)C(=O)N1CCC2(CC1)C(=O)N([C@H]1C[C@@H](N3CCCCC3)C1)c1cc(-c3cc4ncn(C(C)C)c4c(Nc4ccncc4F)n3)ccc12 [Example 152] | 0.5
10 | CC(C)n1cnc2cc(-c3ccc4c(c3)N([C@H]3C[C@@H](N5CCCC6(CC6)C5)C3)C(=O)C43CCN(C(=O)C(C)(C)CO)CC3)nc(Nc3ccncc3F)c21 [Example 122] | 0.2
11 | CC(C)n1cnc2cc(-c3ccc4c(c3)N([C@H]3C[C@@H](N5CC6CCC(C6)C5)C3)C(=O)C43CCN(C(=O)C(C)(C)CO)CC3)nc(Nc3ccncc3F)c21 [Example 127] | 0.07
12 | CC[C@H](O)C(=O)N1CCC2(CC1)C(=O)N([C@H]1C[C@@H](N3CCCCC3)C1)c1cc(-c3cc4ncn(C(C)C)c4c(Nc4ccncc4F)n3)ccc12 [Example 115] | 0.4
13 | CC(C)n1cnc2cc(-c3ccc4c(c3)N([C@H]3C[C@@H](N5C[C@H]6CC[C@H]6C5)C3)C(=O)C43CCN(C(=O)[C@@H](C)O)CC3)nc(Nc3ccncc3F)c21 [Example 113] | 0.07
14 | CC(=O)N1CCC2(CC1)C(=O)N([C@H]1C[C@@H](N3CCC4(CC4)C3)C1)c1cc(-c3cc4ncn(C(C)C)c4c(Nc4ccncc4F)n3)ccc12 [Example 178] | 0.8
15 | CC(C)n1cnc2cc(-c3ccc4c(c3)N([C@H]3C[C@@H](N5CCC(C)(C)C5)C3)C(=O)C43CCN(C(=O)C4(C)COC4)CC3)nc(Nc3ccc(F)nc3F)c21 [Example 165] | 0.06
16 | CCn1cnc2cc(-c3ccc4c(c3)N([C@H]3C[C@@H](N5CCCCC5)C3)C(=O)C43CCN(C(=O)C(C)C)CC3)nc(Nc3ccncc3F)c21 [Example 148] | 1.3
17 | CC(C)n1cnc2cc(-c3ccc4c(c3)N([C@H]3C[C@@H](N5CCCCC5)C3)C(=O)C43CCN(C(=O)C(C)(C)CF)CC3)nc(Nc3ccncc3F)c21 [Example 139] | 0.5
18 | CC(=O)N1CCC2(CC1)C(=O)N([C@H]1C[C@@H](N3CCC4CC4C3)C1)c1cc(-c3cc4ncn(C(C)C)c4c(Nc4ccncc4F)n3)ccc12 (stereo partly drawn) [Example 183] | 0.4
19 | CC(C)n1cnc2cc(-c3ccc4c(c3)N([C@H]3C[C@@H](N5CCCC5)C3)C(=O)C4(C)C)nc(Nc3ccncc3F)c21 [Example 188] | 3.2
20 | CC(C)n1cnc2cc(-c3ccc4c(c3)N([C@H]3C[C@@H](N5CCCCC5)C3)C(=O)C43CCN(C(=O)C4(F)CCC4)CC3)nc(Nc3ccncc3F)c21 [Example 149] | 0.5
21 | CC(C)n1cnc2cc(-c3ccc4c(c3)N([C@H]3C[C@@H](N5CC6CCC(C6)C5)C3)C(=O)C43CCN(C(=O)CO)CC3)nc(Nc3ccncc3F)c21 [Example 128] | 0.07

Same assay, conditions: recombinant human HPK1 kinase domain 0.15 nM, 10 μM ATP, 1 μM STK S1 peptide; geometric mean of multiple experiments

Row | Structure (SMILES) | IC50 [nM]
22 | CC(C)n1cnc2cc(-c3ccc4c(c3)N([C@H]3C[C@@H](N5CCCCC5)C3)C(=O)C43CCN(C(=O)C4CCO4)CC3)nc(Nc3ccncc3F)c21 (stereo partly drawn) [Example 22] | 0.3
23 | CC(C)n1cnc2cc(-c3ccc4c(c3)N([C@H]3C[C@@H](N5CCC(C)(C)C5)C3)C(=O)C43CCN(C(=O)C4CCCCO4)CC3)nc(Nc3ccncc3F)c21 (stereo partly drawn) [Example 24] | 0.09
24 | CC(C)n1cnc2cc(-c3ccc4c(c3)N([C@H]3C[C@@H](N5CC[C@@H](C)C5)C3)C(=O)C43CCN(C4COC4)CC3)nc(Nc3ccncc3F)c21 [Example 44] | 1.1
25 | CC(C)n1cnc2cc(-c3ccc4c(c3)N([C@H]3C[C@@H](N5CCCCC5)C3)C(=O)C43CCN(C4COC4)CC3)nc(Nc3ccnc(F)c3F)c21 [Example 91, 6-(4-((2,3-difluoropyridin-4-yl)amino)-3-isopropyl-3H-imidazo[4,5-c]pyridin-6-yl)-1′-(oxetan-3-yl)-1-((1s,3s)-3-(piperidin-1-yl)cyclobutyl)spiro[indoline-3,4′-piperidin]-2-one] | 0.2
26 | CC(C)n1cnc2cc(-c3ccc4c(c3)N([C@H]3C[C@@H](N5CCC(F)CC5)C3)C(=O)C43CCN(C4COC4)CC3)nc(Nc3ccncc3F)c21 [Example 43] | 1.1
27 | CC(=O)N1CCC2(CC1)C(=O)N([C@H]1C[C@@H](N3CCCCC3)C1)c1cc(-c3cc4ncn(C(C)C)c4c(Nc4ccncc4F)n3)ccc12 [Example 67, 1′-acetyl-6-(4-((3-fluoropyridin-4-yl)amino)-3-isopropyl-3H-imidazo[4,5-c]pyridin-6-yl)-1-((1s,3s)-3-(piperidin-1-yl)cyclobutyl)spiro[indoline-3,4′-piperidin]-2-one] | 0.5
28 | CC(C)n1cnc2cc(-c3ccc4c(c3)N([C@H]3C[C@@H](N5CCCC(C)(F)C5)C3)C(=O)C43CCN(C4COC4)CC3)nc(Nc3ccncc3F)c21 (stereo partly drawn) [Example 80] | 0.4
29 | CC(C)n1cnc2cc(-c3ccc4c(c3)N([C@H]3C[C@@H](N5CCC(C)(C)C5)C3)C(=O)C43CCN(C4COC4)CC3)nc(Nc3ccncc3F)c21 [Example 75] | 0.4
30 | CC(C)n1cnc2cc(-c3ccc4c(c3)N([C@H]3C[C@@H](N5CCC(C)(C)C5)C3)C(=O)C43CCN(C(=O)C4(C)CCOC4)CC3)nc(Nc3ccncc3F)c21 (stereo partly drawn) [Example 18] | 0.3
31 | CC(C)n1cnc2cc(-c3ccc4c(c3)N([C@H]3C[C@@H](N5C[C@@H](O)C(C)(C)C5)C3)C(=O)C43CCN(C4COC4)CC3)nc(Nc3ccncc3F)c21 [Example 40] | 0.6
32 | CC(C)n1cnc2cc(-c3ccc4c(c3)N([C@H]3C[C@@H](N5CCC(C)(C)C5)C3)C(=O)C43CCN(C(=O)C4CCCOC4)CC3)nc(Nc3ccncc3F)c21 (stereo partly drawn) [Example 25] | 0.2
33 | CC(C)n1cnc2cc(-c3ccc4c(c3)N([C@H]3C[C@@H](N5CC6C(C5)C6(C)C)C3)C(=O)C4(C)C)nc(Nc3ccncc3F)c21 (stereo partly drawn) [Example 60] | 0.3
34 | CC(=O)N1CCC2(CC1)C(=O)N([C@H]1C[C@@H](N3CCC(C)(C)C3)C1)c1cc(-c3cc4ncn(C(C)C)c4c(Nc4ccncc4F)n3)ccc12 [Example 29] | 0.4
35 | CC(C)n1cnc2cc(-c3ccc4c(c3)N([C@H]3C[C@@H](N5CCC(C)(C)C5)C3)C(=O)C43CCN(C(=O)[C@H]4OCC[C@H]4C)CC3)nc(Nc3ccncc3F)c21 [Example 19B, 1-((1s,3R)-3-(3,3-dimethylpyrrolidin-1-yl)cyclobutyl)-6-(4-((3-fluoropyridin-4-yl)amino)-3-isopropyl-3H-imidazo[4,5-c]pyridin-6-yl)-1′-((2S,3R)-3-methyltetrahydrofuran-2-carbonyl)spiro[indoline-3,4′-piperidin]-2-one] | 0.1
36 | CC(=O)N1CCC2(CC1)C(=O)N([C@H]1C[C@@H](N3CCCCC3)C1)c1cc(-c3cc4ncn(C(C)C)c4c(Nc4cc(C(=O)NC(C)C)ncc4F)n3)ccc12 [Example 74] | 6.6
